Reference: PubChem BioAssay AID1845196 (Molecular Pharmacology Branch, DTP, NCI, 2023)

Tested on: 292921-168-R tumor spheroid viability
Assay: Anticancer human tumor 292921-168-R patient-derived pancreatic carcinoma cell line growth inhibition
Conditions: spheroids with HUVEC and MSC; for IC50: curve of first compound; for viability, T/C: stronger effect = lower value; active means viability on the fitted dose curve at most 10% of control; inactive means the rest
From the text: Multicellular complex tumor spheroid response to DNA repair inhibitors in combination with DNA-damaging drugs
This study explores the anticancer activities of DNA-damaging drugs and inhibitors of DNA damage repair, both as single agents and in combinations. Complex tumor spheroids comprised of malignant cells, endothelial cells and mesenchymal stem cells served as an in vitro model for human solid tumors. This model system incorporates physiologically relevant features and patient-derived or established malignant cell lines with clinically relevant genetic alterations from many tumor types. Twenty-six patient-derived or established malignant cell lines were evaluated representing sarcoma, melanoma, small cell lung cancer (SCLC), non-small cell lung cancer (NSCLC), as well as bladder, ovarian and pancreatic cancers. The concentration ranges selected for each drug and investigational agent were based upon clinically achievable concentrations if the clinical Cmax of the agent was known.
Compounds. The drugs and compounds olaparib (NSC753686), talazoparib (NSC767125), berzosertib (NSC777718), elimusertib (NSC800525), nedisertib (NSC802822), VX-984 (NSC792969), AZD-1390 (NSC803789), temozolomide (NSC362856), topotecan (NSC609699), trabectedin (NSC813783), staurosporine (NSC755774), and gemcitabine (NSC613327) were obtained from the National Cancer Institute (NCI) Developmental Therapeutics Program Chemical Repository. The FDA-approved anticancer drug set is available from the Developmental Therapeutics Program at https://dtp.cancer.gov/organization/dscb/obtaining/available_plates.htm. […] The stock solutions were prepared in dimethyl sulfoxide (DMSO, Sigma-Aldrich, St. Louis, MO, cat. D2650) at 400-fold the tested concentration and stored at -70 degrees C. Prior to their use, the stock solutions were diluted in fresh medium and the final DMSO concentration in the assay was 0.25% (v/v). All drugs and investigational agents were tested over a range starting from a high concentration at or near the clinical Cmax and decreasing in half-log increments. If the clinical Cmax for an agent had not been determined, the highest concentration tested was 10 microM.
Cell Lines. The patient-derived cancer cell (PDC) lines: 156681-154-R-J1-PDC, 283228-195-R-J1-PDC, 287954-098-R-J1-PDC, 292921-168-R-J2-PDC, 349418-098-R-PDC, 425362-245-T-J1-PDC, 556581-035-R-J1-PDC, and BL0293-F563-PDC were received from the NCI Patient-Derived Models Repository (PDMR, https://pdmr.cancer.gov). The established cell lines HS-SY-2 (RRID:CVCL_8719), MPNST, and SYO-1 (RRID:CVCL_7146) were obtained from the Sloan Kettering Institute. The alveolar soft parts sarcoma cell line ASPS-1 (RRID:CVCL_S738) was established at the NCI and grown from internal seed stocks. The following established cell lines were purchased from the American Type Culture Collection (ATCC, Manassas, VA): G-401 (ATCC, cat. CRL-1441, RRID:CVCL_0270), SW982 (ATCC, cat. HTB-93, RRID:CVCL_1734), VA-ES-BJ (ATCC, cat. CRL-2138, RRID:CVCL_1785), NCI-H719 (ATCC, cat. CRL-5837, RRID:CVCL_1582), NCI-H196 (ATCC, cat. CRL-5823, RRID:CVCL_1509), NCI-H841 (ATCC, cat. CRL-5845, RRID:CVCL_1595), NCI-H1618 (ATCC, cat. CRL-5879, RRID:CVCL_1480), NCI-H1876 (ATCC, cat. CRL-5902, RRID:CVCL_1503), DMS 114 (ATCC, cat. CRL-2066; RRID:CVCL_1174), NCI-H211 (ATCC, cat. CRL-5824; RRID:CVCL_1529), and SW 1271 (ATCC, cat. CRL-2177, RRID:CVCL_1716). The small cell lung cancer cell line COR-L88 was purchased from Sigma-Aldrich (cat. 92031917-1VL, RRID:CVCL_1141). The non-small cell lung cancer cell lines NCI-H226 (RRID:CVCL_1544) and NCI-H322M (RRID:CVCL_1557) were established at the NCI and grown from internal seed stocks. Pooled donor human umbilical vein endothelial cells (HUVEC, Lonza, cat. CC-2519) and human mesenchymal stem cells (hMSC, Lonza, cat. PT-2501) were purchased from Lonza (Walkersville, MD).
Cell Culture. All cells were maintained in an incubator at 37 degrees C and 5% CO2 with 95% humidity. […]
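Further: spheroids exposed to compounds for 7 days.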

Cc1cc(C)c(CNC(=O)c2cc(-c3ccc(CN4CCOCC4)cc3)cc3c2cnn3C2CCCC2)c(=O)[nH]1 + CC[C@@]1(O)C(=O)OCc2c1cc1n(c2=O)Cc2cc3c(CN(C)C)c(O)ccc3nc2-1
> 10000 nM: IC50 (second compound 0.003 µM) | IC50 (second compound 0.00949 µM)
active: viability, T/C (second compound 0.3 µM, first compound 0.0316 µM) 3.97% | viability, T/C (second compound 0.3 µM, first compound 0.1 µM) 4.78% | viability, T/C (second compound 0.3 µM, first compound 0.316 µM) 4.87% | viability, T/C (second compound 0.3 µM, first compound 1 µM) 5.2% | viability, T/C (second compound 0.3 µM, first compound 3.16 µM) 5.56% | viability, T/C (second compound 0.3 µM, first compound 10 µM) 6.73%
< 31.6 nM: IC50 (second compound 0.03 µM) | IC50 (second compound 0.0949 µM) | IC50 (second compound 0.3 µM)
inactive: viability, T/C (second compound 0.003 µM, first compound 0.0316 µM) 87.6% | viability, T/C (second compound 0.003 µM, first compound 0.1 µM) 78.4% | viability, T/C (second compound 0.003 µM, first compound 0.316 µM) 84.7% | viability, T/C (second compound 0.003 µM, first compound 1 µM) 82.2% | viability, T/C (second compound 0.003 µM, first compound 3.16 µM) 85.9% | viability, T/C (second compound 0.003 µM, first compound 10 µM) 50.9% | viability, T/C (second compound 0.00949 µM, first compound 0.0316 µM) 76.9% | viability, T/C (second compound 0.00949 µM, first compound 0.1 µM) 77.2% | viability, T/C (second compound 0.00949 µM, first compound 0.316 µM) 76% | viability, T/C (second compound 0.00949 µM, first compound 1 µM) 71.7% | viability, T/C (second compound 0.00949 µM, first compound 3.16 µM) 64.8% | viability, T/C (second compound 0.00949 µM, first compound 10 µM) 53% | viability, T/C (second compound 0.03 µM, first compound 0.0316 µM) 32.5% | viability, T/C (second compound 0.03 µM, first compound 0.1 µM) 37.8% | viability, T/C (second compound 0.03 µM, first compound 0.316 µM) 34.9% | viability, T/C (second compound 0.03 µM, first compound 1 µM) 35.5% | viability, T/C (second compound 0.03 µM, first compound 3.16 µM) 28.6% | viability, T/C (second compound 0.03 µM, first compound 10 µM) 27.8% | viability, T/C (second compound 0.0949 µM, first compound 0.0316 µM) 14.8% | viability, T/C (second compound 0.0949 µM, first compound 0.1 µM) 14.2% | viability, T/C (second compound 0.0949 µM, first compound 0.316 µM) 14.2% | viability, T/C (second compound 0.0949 µM, first compound 1 µM) 13.4% | viability, T/C (second compound 0.0949 µM, first compound 3.16 µM) 14.1% | viability, T/C (second compound 0.0949 µM, first compound 10 µM) 13.1%

Cc1sc2c(c1C)C(c1ccc(Cl)cc1)=NC(CC(=O)Nc1ccc(O)cc1)c1nnc(C)n1-2 (stereo not given) + CC[C@@]1(O)C(=O)OCc2c1cc1n(c2=O)Cc2cc3c(CN(C)C)c(O)ccc3nc2-1
389 nM: IC50 (second compound 0.003 µM)
449 nM: IC50 (second compound 0.00949 µM)
active: viability, T/C (second compound 0.03 µM, first compound 3 µM) 2.79% | viability, T/C (second compound 0.0949 µM, first compound 0.03 µM) 8.41% | viability, T/C (second compound 0.0949 µM, first compound 0.0949 µM) 6.38% | viability, T/C (second compound 0.0949 µM, first compound 0.3 µM) 3.78% | viability, T/C (second compound 0.0949 µM, first compound 0.949 µM) 1.73% | viability, T/C (second compound 0.0949 µM, first compound 3 µM) 1.06% | viability, T/C (second compound 0.3 µM, first compound 0.00949 µM) 4.29% | viability, T/C (second compound 0.3 µM, first compound 0.03 µM) 3.58% | viability, T/C (second compound 0.3 µM, first compound 0.0949 µM) 3.16% | viability, T/C (second compound 0.3 µM, first compound 0.3 µM) 1.72% | viability, T/C (second compound 0.3 µM, first compound 0.949 µM) 0.92% | viability, T/C (second compound 0.3 µM, first compound 3 µM) 0.66%
< 9.49 nM: IC50 (second compound 0.03 µM) | IC50 (second compound 0.0949 µM) | IC50 (second compound 0.3 µM)
inactive: viability, T/C (second compound 0.003 µM, first compound 0.00949 µM) 92.5% | viability, T/C (second compound 0.003 µM, first compound 0.03 µM) 67.6% | viability, T/C (second compound 0.003 µM, first compound 0.0949 µM) 62% | viability, T/C (second compound 0.003 µM, first compound 0.3 µM) 57.6% | viability, T/C (second compound 0.003 µM, first compound 0.949 µM) 44.1% | viability, T/C (second compound 0.003 µM, first compound 3 µM) 28.5% | viability, T/C (second compound 0.00949 µM, first compound 0.00949 µM) 81.1% | viability, T/C (second compound 0.00949 µM, first compound 0.03 µM) 67.4% | viability, T/C (second compound 0.00949 µM, first compound 0.0949 µM) 63.8% | viability, T/C (second compound 0.00949 µM, first compound 0.3 µM) 56.3% | viability, T/C (second compound 0.00949 µM, first compound 0.949 µM) 43.5% | viability, T/C (second compound 0.00949 µM, first compound 3 µM) 21.6% | viability, T/C (second compound 0.03 µM, first compound 0.00949 µM) 31.5% | viability, T/C (second compound 0.03 µM, first compound 0.03 µM) 31.4% | viability, T/C (second compound 0.03 µM, first compound 0.0949 µM) 29.6% | viability, T/C (second compound 0.03 µM, first compound 0.3 µM) 25% | viability, T/C (second compound 0.03 µM, first compound 0.949 µM) 13.8% | viability, T/C (second compound 0.0949 µM, first compound 0.00949 µM) 9.7%
